Data taken from patent US8901116B2, “Method for treating pain, anxiety or depression using carbamoyloxy alkanoyl piperazine compound” (SK Biopharmaceuticals Co., Ltd., priority 2007, dated 2014).
Structures can show the parent of a compound that is named as a salt.

Legend:
Assay type in all cases: in vivo
male ICR mouse [1] = experiment: Head twitch potentiation induced by 5-HTP (5-HTP potentiation test) in mouse; conditions: po, 0.5 h, p.o, 5-HTP 80 mg/kg + Carbidopa 25 mg/kg i.p. 30 minutes after dosing, head twitches counted for 2 minutes, negative = 5-HT2A antagonist, read-out: 5-HTP Potentiation Increase rate in Head Twitch No.
Procedure: When 5-hydroxy-L-tryptophan (5-HTP) is administered into a mouse, a head twitch phenomenon is observed since serotonin is increasingly secreted in the mouse. […] By using this principle, it is possible to search an effect of the representative antidepressant agent. A test material dissolved in a suitable vehicle was orally administered to a male ICR mouse weighing 20 to 25 g at an amount of 30 mg/kg. After 30 minutes of the oral administration, 5-HTP (80 mg/kg) and 5-HTP peripheral decarbozylase inhibitor ‘Carbidopa’ (25 mg/kg) were intraperitoneally administered to the mouse. After 30 minutes of the intraperitoneal administration, the mouse was put into an observation cage, and head twitches of the mouse were counted for 2 minutes. The anti-depression effect of the test material is represented by the ‘Increase rate in Head Twitch No.’ {[(Head Twitch No. of Test material-administered group−Head Twitch No. of vehicle-administered group)/(Head Twitch No. of vehicle-administered group)]×100%}. […] In addition to the selective serotonin reuptake inhibitor (SSRI) that has been widely used as an antidepressant agent in the clinical fields, it was tested that 5-HT2A antagonists such as nefazodone and trazodone also have an antidepressant effect.

male ICR mouse [2] = experiment: Elevated plus maze (EPM) test in mouse; conditions: po, p.o, 1 hour after dosing, 5 minutes observation, read-out: Elevated Plus Maze Change index in Open-Arm Time
Source text: Elevated plus maze (EPM) is one of representative models that examine an anti-anxiety activity of a test material. Equipment used for an EPM test has a crossroad shape raised in a high position off the ground, and is configured in such a cliff shape that both sides of one road are protected with high walls and the other road is free from the wall. Among them, the road in the cliff shape is referred to as an ‘open arm,’ and the road protected by the walls is referred to as a ‘close arm.’ In this case, a level of the anxiety of a mouse may be measured by determining in which arm the mouse stays longer. In general, the mouse stays longer in the close arm than the open arm, but a mouse treated with a medicine showing an anti-anxiety effect stays relatively longer in the open arm. A test material dissolved in a suitable vehicle was orally administered to a male ICR mouse weighing 20 to 25 g at an amount of 10 mg/kg. After 1 hour of the oral administration, the mouse was put on the center of an EPM equipment to measure how long the mouse stays in the open arm within a time range of 5 minutes. The anti-anxiety effect of the test material is represented by the ‘Change index in Open-Arm Time’ {[(open arm duration in test material-administered group−open arm duration in vehicle-administered group)/(open arm duration in vehicle administered group)]×100%}.

male ICR mouse [3] = experiment: Hot plate test in mouse; conditions: po, p.o, 1 hour after dosing, hot plate 55° C., read-out: Hot Plate Test Increase in latency of avoidance response
Procedure: A hot plate test is one of representative models for measuring an analgesic effect of drugs. A test material dissolved in a suitable vehicle was orally administered to a male ICR mouse weighing 25 to 30 g at an amount of 30 mg/kg. After 1 hour of the oral administration, the mouse was put on a hot plate (55° C.). A latency was recorded from the time right after a mouse is put on a hot plate to the time when avoidance responses (flinching, licking, jumping, etc.) to pain are observed from forefeet or rear legs of the mouse. The analgesic effect of the test material is represented by the ‘Increase in latency of avoidance response’ {[(Latency of avoidance response to pain of Test material-administered group−Latency of avoidance response to pain of vehicle-administered group)/(Latency of avoidance response to pain of Solvent-administered group)]×100%}.

male ICR mouse [4] = experiment: Acetic acid-induced writhing test in mouse; conditions: po, p.o, acetic acid i.p. 1 hour after dosing, writhing counted for 10 minutes, read-out: Writhing Test Suppression of pain response
Procedure: An acetic acid-induced writhing test is one of models for measuring an analgesic effect of drugs. A test material dissolved in a suitable vehicle was orally administered to a male ICR mouse weighing 30 to 35 g at an amount of 10 mg/kg. After 1 hour of the oral administration, […] of an aqueous 0.8% acetic acid solution was intraperitoneally injected into the male ICR mouse to induce the abdominal pain of the male ICR mouse. Right after the administration of acetic acid, the male ICR mouse was put into an empty cage, and the number of writhing behaviors of the mice was counted for 10 minutes. The term “writhing” represents a reflex action in which the mouse overtly extends its abdomen by stretching its hind legs due to the abdominal pain. The analgesic effect of the test material is represented by the ‘suppression of pain response’ {[(Writhing number of vehicle-administered group−Writhing number of Test material—administered group)/(Writhing number of Solvent-administered group)]×100%}.

## NC(=O)OC(CC(=O)N1CCN(c2cccc(Cl)c2Cl)CC1)c1ccccc1 (stereo not shown) [Example 12, carbamic acid 3-[4-(2,3-dichloro-phenyl)-piperazin-1-yl]-3-oxo-1-phenyl-propyl ester]
Male ICR mouse [1]
  change in vivo at 30 mg/kg: 10%
Male ICR mouse [2]
  change in vivo at 10 mg/kg: 41.1%
Male ICR mouse [3]
  change in vivo at 30 mg/kg: 46.8%
Male ICR mouse [4]
  inhibition in vivo at 10 mg/kg: 37%

## NC(=O)OC(CC(=O)N1CCN(c2ccc(F)cc2F)CC1)c1ccccc1 (stereo not shown) [Example 13, carbamic acid 3-[4-(2,4-difluoro-phenyl)-piperazin-1-yl]-3-oxo-1-phenyl-propyl ester]
Male ICR mouse [1]
  change in vivo at 30 mg/kg: -60%
Male ICR mouse [2]
  change in vivo at 10 mg/kg: 12.6%
Male ICR mouse [3]
  change in vivo at 30 mg/kg: 21.4%
Male ICR mouse [4]
  inhibition in vivo at 10 mg/kg: 64%

## NC(=O)OC(CC(=O)N1CCN(c2ccccc2)CC1)c1ccc(Cl)cc1 (stereo not shown) [Example 16, carbamic acid 1-(4-chloro-phenyl)-3-oxo-3-(4-phenyl-piperazin-1-yl)-propyl ester]
Male ICR mouse [1]
  change in vivo at 30 mg/kg: 140%
Male ICR mouse [2]
  change in vivo at 10 mg/kg: 1.3%
Male ICR mouse [3]
  change in vivo at 30 mg/kg: 19.5%
Male ICR mouse [4]
  inhibition in vivo at 10 mg/kg: 37.3%

## CC(C)(C)c1ccc(N2CCN(C(=O)CC(OC(N)=O)c3ccccc3)CC2)cc1 (stereo not shown) [Example 17, carbamic acid 3-[4-(4-tert-butyl-phenyl)-piperazin-1-yl]-3-oxo-1-phenyl-propyl ester]
Male ICR mouse [1]
  change in vivo at 30 mg/kg: 10%
Male ICR mouse [2]
  change in vivo at 10 mg/kg: 34%
Male ICR mouse [3]
  change in vivo at 30 mg/kg: 29.4%
Male ICR mouse [4]
  inhibition in vivo at 10 mg/kg: 25.3%

## NC(=O)OC(CC(=O)N1CCN(c2ccc(O)cc2)CC1)c1ccccc1 (stereo not shown) [Example 18, carbamic acid 3-[4-(4-hydroxy-phenyl)-piperazin-1-yl]-3-oxo-1-phenyl-propyl ester]
Male ICR mouse [1]
  change in vivo at 30 mg/kg: -23.4%
Male ICR mouse [2]
  change in vivo at 10 mg/kg: 16.1%
Male ICR mouse [3]
  change in vivo at 30 mg/kg: 26.4%
Male ICR mouse [4]
  inhibition in vivo at 10 mg/kg: 30.6%

## COc1ccc(N2CCN(C(=O)CC(OC(=O)N(C)C)c3ccccc3)CC2)cc1 (stereo not shown) [Example 19, dimethyl-carbamic acid 3-[4-(4-methoxy-phenyl)-piperazin-1-yl]-3-oxo-1-phenyl-propyl ester]
Male ICR mouse [1]
  change in vivo at 30 mg/kg: 60%
Male ICR mouse [2]
  change in vivo at 10 mg/kg: 0%
Male ICR mouse [3]
  change in vivo at 30 mg/kg: 49.4%
Male ICR mouse [4]
  inhibition in vivo at 10 mg/kg: 34.2%

## Cc1ccc(N2CCN(C(=O)CC(OC(N)=O)c3ccccc3)CC2)cc1C (stereo not shown) [Example 20, carbamic acid 3-[4-(3,4-dimethyl-phenyl)-piperazin-1-yl]-3-oxo-1-phenyl-propyl ester]
Male ICR mouse [1]
  change in vivo at 30 mg/kg: -6.3%
Male ICR mouse [2]
  change in vivo at 10 mg/kg: 45.4%
Male ICR mouse [3]
  change in vivo at 30 mg/kg: 45.4%
Male ICR mouse [4]
  inhibition in vivo at 10 mg/kg: 14.6%

## NC(=O)OC(CC(=O)N1CCN(C(c2ccc(F)cc2)c2ccc(F)cc2)CC1)c1ccccc1 (stereo not shown) [Example 21, carbamic acid 3-{4-[bis-(4-fluoro-phenyl)-methyl]-piperazin-1-yl}-3-oxo-1-phenyl-propyl ester]
Male ICR mouse [1]
  change in vivo at 30 mg/kg: -7%
Male ICR mouse [2]
  change in vivo at 10 mg/kg: 67.5%
Male ICR mouse [3]
  change in vivo at 30 mg/kg: 51.4%
Male ICR mouse [4]
  inhibition in vivo at 10 mg/kg: 32.5%

## NC(=O)OC(CC(=O)N1CCN(c2cnc3ccccc3n2)CC1)c1ccccc1 (stereo not shown) [Example 22, carbamic acid 3-oxo-1-phenyl-3-(4-quinoxalin-2-yl-piperazin-1-yl)-propyl ester]
Male ICR mouse [1]
  change in vivo at 30 mg/kg: 3.9%
Male ICR mouse [2]
  change in vivo at 10 mg/kg: -21.2%
Male ICR mouse [3]
  change in vivo at 30 mg/kg: 38%
Male ICR mouse [4]
  inhibition in vivo at 10 mg/kg: 29.4%

## CC(=O)Oc1ccc(N2CCN(C(=O)CC(OC(N)=O)c3ccccc3)CC2)cc1 (stereo not shown) [Example 23, acetic acid 4-[4-(3-carbamoyloxy-3-phenyl-propionyl)-piperazin-1-yl]-phenyl ester]
Male ICR mouse [1]
  change in vivo at 30 mg/kg: 100%
Male ICR mouse [2]
  change in vivo at 10 mg/kg: -25.1%
Male ICR mouse [3]
  change in vivo at 30 mg/kg: 29.4%
Male ICR mouse [4]
  inhibition in vivo at 10 mg/kg: 21.1%

## NC(=O)OC(CC(=O)N1CCN(c2ccc(Cl)c(C(F)(F)F)c2)CC1)c1ccccc1 (stereo not shown) [Example 27, carbamic acid 3-[4-(4-chloro-3-trifluoromethyl-phenyl)-piperazin-1-yl]-3-oxo-1-phenyl-propyl ester]
Male ICR mouse [1]
  change in vivo at 30 mg/kg: -78.1%
Male ICR mouse [2]
  change in vivo at 10 mg/kg: 66.7%
Male ICR mouse [3]
  change in vivo at 30 mg/kg: 41.2%
Male ICR mouse [4]
  inhibition in vivo at 10 mg/kg: 29.1%

## NC(=O)OC(CC(=O)N1CCN(c2ccc(C(F)(F)F)cc2)CC1)c1ccccc1 (stereo not shown) [Example 28, carbamic acid 3-oxo-1-phenyl-3-[4-(4-trifluoromethyl-phenyl)-piperazin-1-yl]-propyl ester]
Male ICR mouse [1]
  change in vivo at 30 mg/kg: -12.5%
Male ICR mouse [2]
  change in vivo at 10 mg/kg: -1.4%
Male ICR mouse [3]
  change in vivo at 30 mg/kg: 3.1%
Male ICR mouse [4]
  inhibition in vivo at 10 mg/kg: 55.6%

## NC(=O)OC(CC(=O)N1CCN(c2ccccc2F)CC1)c1ccccc1 (stereo not shown) [Example 29, carbamic acid 3-[4-(2-fluoro-phenyl)-piperazin-1-yl]-3-oxo-1-phenyl-propyl ester]
Male ICR mouse [1]
  change in vivo at 30 mg/kg: 14.3%
Male ICR mouse [2]
  change in vivo at 10 mg/kg: 92.3%
Male ICR mouse [3]
  change in vivo at 30 mg/kg: 0%
Male ICR mouse [4]
  inhibition in vivo at 10 mg/kg: 34.5%

## NC(=O)OC(CC(=O)N1CCN(c2cccc(F)c2)CC1)c1ccccc1 (stereo not shown) [Example 30, carbamic acid 3-[4-(3-fluoro-phenyl)-piperazin-1-yl]-3-oxo-1-phenyl-propyl ester]
Male ICR mouse [1]
  change in vivo at 30 mg/kg: 40%
Male ICR mouse [2]
  change in vivo at 10 mg/kg: 102%
Male ICR mouse [3]
  change in vivo at 30 mg/kg: 27.1%
Male ICR mouse [4]
  inhibition in vivo at 10 mg/kg: 9.2%

## NC(=O)OC(CC(=O)N1CCN(c2ccccc2)CC1)c1ccc(C(F)(F)F)cc1 (stereo not shown) [Example 31, carbamic acid 3-oxo-3-(4-phenyl-piperazin-1-yl)-1-(4-trifluoromethyl-phenyl)-propyl ester]
Male ICR mouse [1]
  change in vivo at 30 mg/kg: 10%
Male ICR mouse [2]
  change in vivo at 10 mg/kg: 35.6%
Male ICR mouse [3]
  change in vivo at 30 mg/kg: 20.1%
Male ICR mouse [4]
  inhibition in vivo at 10 mg/kg: 21.6%

## Cc1ccc(C(CC(=O)N2CCN(c3ccccc3)CC2)OC(N)=O)cc1 (stereo not shown) [Example 32, carbamic acid 3-oxo-3-(4-phenyl-piperazin-1-yl)-1-p-tolyl-propyl ester]
Male ICR mouse [1]
  change in vivo at 30 mg/kg: -40%
Male ICR mouse [2]
  change in vivo at 10 mg/kg: 9.5%
Male ICR mouse [3]
  change in vivo at 30 mg/kg: 28.2%
Male ICR mouse [4]
  inhibition in vivo at 10 mg/kg: 6%

## NC(=O)OC(CC(=O)N1CCN(c2ccccc2)CC1)c1ccc([N+](=O)[O-])cc1 (stereo not shown) [Example 34, carbamic acid 1-(4-nitro-phenyl)-3-oxo-3-(4-phenyl-piperazin-1-yl)-propyl ester]
Male ICR mouse [1]
  change in vivo at 30 mg/kg: 2.9%
Male ICR mouse [2]
  change in vivo at 10 mg/kg: 6.5%
Male ICR mouse [3]
  change in vivo at 30 mg/kg: 0.6%
Male ICR mouse [4]
  inhibition in vivo at 10 mg/kg: 38.4%

## COc1ccc(N2CCN(C(=O)CC(OC(N)=O)c3ccc(C(F)(F)F)cc3)CC2)cc1OC (stereo not shown) [Example 35, carbamic acid 3-[4-(3,4-dimethoxy-phenyl)-piperazin-1-yl]-3-oxo-1-(4-trifluoromethyl-phenyl)-propyl ester; hydrochloride]
Male ICR mouse [1]
  change in vivo at 30 mg/kg: 64.3%
Male ICR mouse [2]
  change in vivo at 10 mg/kg: 44%
Male ICR mouse [3]
  change in vivo at 30 mg/kg: 32.8%
Male ICR mouse [4]
  inhibition in vivo at 10 mg/kg: 33.8%

## COc1ccc(N2CCN(C(=O)CC(OC(N)=O)c3ccc([N+](=O)[O-])cc3)CC2)cc1OC (stereo not shown) [Example 36, carbamic acid 3-[4-(3,4-dimethoxy-phenyl)-piperazin-1-yl]-1-(4-nitro-phenyl)-3-oxo-propyl ester; hydrochloride]
Male ICR mouse [1]
  change in vivo at 30 mg/kg: 93.8%
Male ICR mouse [2]
  change in vivo at 10 mg/kg: 35.3%
Male ICR mouse [3]
  change in vivo at 30 mg/kg: 20.5%
Male ICR mouse [4]
  inhibition in vivo at 10 mg/kg: 42%
